The subject of test [1] is A-431. Nature of the test: Cell cycle arrest in A431 cells by accumulation at G2/M phase cell. It counts as functional, cell-based. Particulars: Homo sapiens.
Another test concerns NCI-H460. Put plainly: Antiproliferative activity against NCI-H460 tumor cells by sulforhodamine B assay. It counts as functional. Particulars: Homo sapiens. (In SRB staining, fixed cells bind dye roughly in proportion to their protein.)
The test system of a further test is DU-145. Put plainly: Antiproliferative activity against DU145 tumor cells by sulforhodamine B assay. It counts as functional. Particulars: Homo sapiens.
Test [2] addresses T1, Tubulin (Bos taurus) (UniProt Q6B856+Q862L2+Q862F3). The conditions noted are these: at 10 µM.
Description: Inhibition of tubulin polymerization in bovine brain at 10 uM
The test system of a further test is LoVo. Put plainly: Antiproliferative activity against LoVo tumor cells by sulforhodamine B assay. In kind it is functional. The conditions noted are these: Homo sapiens.
For the next test, the system named is A498. Nature of the test: Antiproliferative activity against A498 tumor cells by sulforhodamine B assay. Particulars: Homo sapiens. It counts as functional.
Another test deals with NCI/ADR-RES. Nature of the test: Antiproliferative activity against NCI/ADR-RES tumor cells by sulforhodamine B assay. Particulars: Homo sapiens. In kind it is functional.
A further test deals with HCT-116. Put plainly: Antiproliferative activity against HCT116 tumor cells by sulforhodamine B assay. In kind it is functional. Particulars: Homo sapiens.
The next test concerns SNB-19. Put plainly: Antiproliferative activity against SNB19 tumor cells by sulforhodamine B assay. It counts as functional. The conditions noted are these: Homo sapiens.
The next test has as its system DLD-1. Put plainly: Antiproliferative activity against DLD1 tumor cells by sulforhodamine B assay. The conditions noted are these: Homo sapiens. It counts as functional.
The subject of test [3] is A-431. Nature of the test: Cell cycle arrest in A431 cells by accumulation at G2/M phase cell at 0.1uM. It counts as functional. The conditions noted are these: Homo sapiens.
In test [4] the test system is A-431. Put plainly: Antiproliferative activity against A431 tumor cells by sulforhodamine B assay. It counts as functional. Particulars: Homo sapiens.
The subject of a further test is SK-OV-3. Nature of the test: Antiproliferative activity against SKOV3 tumor cells by sulforhodamine B assay. The conditions noted are these: Homo sapiens. It counts as functional.
The next test deals with Tubulin. Nature of the test: Displacement of [3H]colchicine from tubulin. In kind it is protein-complex assay, Homo sapiens. For orientation: Displacement assays read how much labelled ligand stays bound in the presence of the test substance.
Test [5] addresses T1, Tubulin (Bos taurus). Put plainly: Inhibition of tubulin polymerization in bovine brain at 3.33 uM.

As a reminder, the EC50 is the concentration that produces a half-maximal response. A higher EC50 goes with a less potent agent. The GI50 is the concentration that inhibits growth by half. Read a high GI50 as lower sensitivity of the cells. As a reminder, the inhibition is the change of the read-out against control, counted positive when it falls. A high value points to strong suppression. In general, Ki refers to the dissociation constant of the complex between target and ligand, obtained from inhibition or displacement. Low readings indicate higher affinity, high ones lower affinity.

Compound `COc1cccc(Nc2n[nH]c(-c3cccnc3Nc3cc(OC)cc(OC)c3)n2)c1` returned a concentration giving a half-maximal response (EC50) in the test on A-431 [1] of 90 nM. In addition, the concentration for 50% growth inhibition (GI50) in the test with NCI-H460 was found to be 10 nM; with DU-145, 20 nM; with LoVo it was 20 nM; in the test on A498, 60 nM; with NCI/ADR-RES it was 150 nM; in the test with HCT-116 it was 400 nM. In addition, the GI50 in the test on SNB-19 came out at 150 nM; in the test on DLD-1, 70 nM; with A-431 [4] it was 50 nM; with SK-OV-3 it was 220 nM. The compound also registered an inhibition against Tubulin (Bos taurus) [2] of 80%. Further, 0.1 µM produced 72% inhibition in the test with A-431 [3].
As to `COc1cc(Nc2ncccc2-c2n[nH]c(Nc3ccc4c(c3)OCO4)n2)cc(OC)c1`, in the test with A-431 [1], the EC50 was determined as 62 nM. Besides, on Tubulin (Bos taurus) [2], the inhibition turned out to be 87%. The same compound came in with a Ki at Tubulin of 60 nM. The same compound had an inhibition at 0.1 µM in the test on A-431 [3] of 85%.
Consider `COc1cccc(Nc2n[nH]c(-c3cccnc3Oc3cc(OC)cc(OC)c3)n2)c1`, for which the response with A-431 [1] was half-maximal at 21 nM (EC50). The inhibition against Tubulin (Bos taurus) [2] and against Tubulin (Bos taurus) [5] was 100% each time. Further, the Ki on Tubulin turned out to be 50 nM. Also, the inhibition at 0.1 µM in the test on A-431 [3] stood at 83%.
In the test on A-431 [1], `COc1cc(OC)cc(Oc2ncccc2-c2n[nH]c(Nc3ccc4c(c3)OCCO4)n2)c1` had an EC50 of 3.6 nM. For the same compound, the inhibition on Tubulin (Bos taurus) [2] was found to be 100%; against Tubulin (Bos taurus) [5] it was 88%. Besides, the Ki on Tubulin was 20 nM. Testing at 0.1 µM in the test on A-431 [3] gave an inhibition of 89%.
On the same counts, the results for `COc1cc(OC)cc(Oc2ncccc2-c2n[nH]c(Nc3ccc4c(c3)OCO4)n2)c1` are 7.2 nM, 98%, 91%, 10 nM and 83%.

Source of the values: ChEMBL document CHEMBL1141190, “Synthesis and structure-activity relationships of 1,2,4-triazoles as a novel class of potent tubulin polymerization inhibitors” (Bioorg Med Chem Lett, 2005).
